Source: ChEMBL document CHEMBL5523684, “Development of a tetrahydroindazolone-based HDAC6 inhibitor with in-vivo anti-arthritic activity” (Bioorg Med Chem, 2024)

Tests used:
Histone deacetylase 3 = Histone deacetylase 3 (Homo sapiens, UniProt O15379)
Histone deacetylase 8 = molecular target: T1, Histone deacetylase 8 (Homo sapiens, UniProt Q9BY41); test: Inhibition of human recombinant HDAC8 using fluorescent peptide p53 (379 to 382 residues) (RHK(Ac)K(Ac)) as substrate by fluorescence based analysis
T1 sequence (Q9BY41 whole entry): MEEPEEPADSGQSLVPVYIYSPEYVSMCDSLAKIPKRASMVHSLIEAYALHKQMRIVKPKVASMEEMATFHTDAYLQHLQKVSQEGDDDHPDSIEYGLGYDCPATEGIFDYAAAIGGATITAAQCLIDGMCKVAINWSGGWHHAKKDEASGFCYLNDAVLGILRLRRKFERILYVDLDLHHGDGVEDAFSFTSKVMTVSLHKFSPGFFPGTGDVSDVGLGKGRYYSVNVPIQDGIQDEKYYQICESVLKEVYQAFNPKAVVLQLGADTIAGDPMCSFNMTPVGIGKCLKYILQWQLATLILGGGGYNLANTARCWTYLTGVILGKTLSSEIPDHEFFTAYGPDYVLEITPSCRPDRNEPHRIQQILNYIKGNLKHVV

Histone deacetylase 11 = molecular target: T2, Histone deacetylase 11 (Homo sapiens, UniProt Q96DB2); test: Inhibition of human recombinant HDAC11 using fluorescent peptide p53 (379 to 382 residues) RHKK(Ac) as substrate by fluorescence based analysis
T2 sequence (Q96DB2 whole entry): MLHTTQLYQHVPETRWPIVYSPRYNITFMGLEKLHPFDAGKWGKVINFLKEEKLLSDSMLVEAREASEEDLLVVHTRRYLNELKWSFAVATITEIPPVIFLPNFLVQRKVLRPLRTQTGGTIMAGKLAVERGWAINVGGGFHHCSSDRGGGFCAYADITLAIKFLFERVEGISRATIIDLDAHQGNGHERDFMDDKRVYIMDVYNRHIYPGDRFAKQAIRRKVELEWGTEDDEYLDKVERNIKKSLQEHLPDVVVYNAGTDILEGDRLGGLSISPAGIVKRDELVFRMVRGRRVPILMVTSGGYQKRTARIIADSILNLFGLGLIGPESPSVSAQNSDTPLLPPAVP

Histone deacetylase 1 = Histone deacetylase 1 (Homo sapiens, UniProt Q13547); test: Inhibition of human recombinant HDAC1 using fluorescent peptide p53 (379 to 382 residues) RHKK(Ac) as substrate by fluorescence based analysis
Chain of Histone deacetylase 1 (Q13547 whole entry, the tested form may be a part): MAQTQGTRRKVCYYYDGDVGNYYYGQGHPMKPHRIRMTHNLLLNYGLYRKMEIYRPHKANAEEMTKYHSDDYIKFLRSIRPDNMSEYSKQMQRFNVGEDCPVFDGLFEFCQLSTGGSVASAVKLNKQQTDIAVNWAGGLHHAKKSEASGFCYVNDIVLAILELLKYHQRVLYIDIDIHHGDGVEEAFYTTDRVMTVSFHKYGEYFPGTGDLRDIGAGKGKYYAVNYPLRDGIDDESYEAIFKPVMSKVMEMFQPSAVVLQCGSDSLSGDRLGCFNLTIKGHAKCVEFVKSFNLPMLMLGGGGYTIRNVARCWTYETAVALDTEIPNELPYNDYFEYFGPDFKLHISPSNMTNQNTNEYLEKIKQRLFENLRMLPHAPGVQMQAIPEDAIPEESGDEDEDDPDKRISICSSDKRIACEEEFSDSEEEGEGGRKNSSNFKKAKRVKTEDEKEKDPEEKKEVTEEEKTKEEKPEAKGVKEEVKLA

[1] = molecular target: T3, Polyamine deacetylase HDAC10 (Homo sapiens, UniProt Q969S8); test: Inhibition of human recombinant HDAC10 using fluorescent peptide p53 (379 to 382 residues) RHKK(Ac) as substrate by fluorescence based analysis
T3 sequence (Q969S8 whole entry): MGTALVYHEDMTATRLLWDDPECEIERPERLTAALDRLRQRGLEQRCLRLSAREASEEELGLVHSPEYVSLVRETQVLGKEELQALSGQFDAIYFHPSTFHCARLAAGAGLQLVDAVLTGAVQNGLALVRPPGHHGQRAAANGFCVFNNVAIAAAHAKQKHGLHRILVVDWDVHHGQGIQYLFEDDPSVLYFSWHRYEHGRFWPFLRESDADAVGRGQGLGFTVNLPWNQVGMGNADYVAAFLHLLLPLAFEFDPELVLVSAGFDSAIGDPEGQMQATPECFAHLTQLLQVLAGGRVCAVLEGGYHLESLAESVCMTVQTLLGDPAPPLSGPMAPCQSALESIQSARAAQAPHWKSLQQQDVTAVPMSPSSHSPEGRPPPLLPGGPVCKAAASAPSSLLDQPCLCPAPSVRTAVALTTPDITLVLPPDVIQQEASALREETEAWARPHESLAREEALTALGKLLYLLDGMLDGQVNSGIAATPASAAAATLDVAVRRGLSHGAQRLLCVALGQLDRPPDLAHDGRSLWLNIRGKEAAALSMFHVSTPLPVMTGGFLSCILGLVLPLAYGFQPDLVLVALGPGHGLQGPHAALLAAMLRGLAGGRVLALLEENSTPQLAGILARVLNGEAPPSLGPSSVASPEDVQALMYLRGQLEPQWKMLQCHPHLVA

Histone deacetylase 7 = molecular target: T4, Histone deacetylase 7 (Homo sapiens, UniProt Q8WUI4); test: Inhibition of human recombinant HDAC7 using Boc-Lys(tri-fluoroacetyl)-AMC as substrate by fluorescence based analysis
T4 sequence (Q8WUI4 whole entry): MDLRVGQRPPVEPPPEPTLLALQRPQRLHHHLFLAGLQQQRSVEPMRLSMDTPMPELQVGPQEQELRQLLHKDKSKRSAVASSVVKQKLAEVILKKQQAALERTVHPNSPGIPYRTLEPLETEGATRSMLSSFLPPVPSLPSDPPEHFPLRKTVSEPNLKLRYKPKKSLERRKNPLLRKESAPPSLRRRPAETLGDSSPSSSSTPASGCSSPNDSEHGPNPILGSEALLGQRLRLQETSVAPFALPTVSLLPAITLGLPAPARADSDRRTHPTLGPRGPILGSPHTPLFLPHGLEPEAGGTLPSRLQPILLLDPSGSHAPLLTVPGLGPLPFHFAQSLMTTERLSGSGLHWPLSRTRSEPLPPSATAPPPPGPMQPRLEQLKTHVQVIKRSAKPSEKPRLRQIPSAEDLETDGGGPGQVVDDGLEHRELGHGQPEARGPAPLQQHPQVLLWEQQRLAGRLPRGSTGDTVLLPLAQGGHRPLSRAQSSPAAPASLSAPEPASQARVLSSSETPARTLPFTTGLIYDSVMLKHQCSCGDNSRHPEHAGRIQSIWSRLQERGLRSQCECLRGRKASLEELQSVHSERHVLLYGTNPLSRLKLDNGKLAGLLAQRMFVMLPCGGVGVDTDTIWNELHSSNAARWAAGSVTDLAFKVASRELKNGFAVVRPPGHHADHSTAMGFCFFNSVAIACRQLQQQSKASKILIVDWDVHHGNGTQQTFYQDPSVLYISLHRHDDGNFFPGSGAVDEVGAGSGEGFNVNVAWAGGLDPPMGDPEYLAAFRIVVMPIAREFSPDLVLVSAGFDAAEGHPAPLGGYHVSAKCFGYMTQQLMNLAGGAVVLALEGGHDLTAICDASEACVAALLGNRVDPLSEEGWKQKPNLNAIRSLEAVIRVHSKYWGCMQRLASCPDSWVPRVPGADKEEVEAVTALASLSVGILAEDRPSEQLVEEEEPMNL

Homo sapiens = species on record: Homo sapiens; test: Selectivity index, ratio of IC50 for inhibition of his-tagged human recombinant HDAC1 using fluor de lys-SIRT1 as substrate to IC50 for inhibition of N-terminal GST-tagged human recombinant HDAC6 expressed in Spodoptera frugiperda
Histone deacetylase 2 = Histone deacetylase 2 (Homo sapiens, UniProt Q92769); test: Inhibition of human recombinant HDAC2 using fluorescent peptide p53 (379 to 382 residues) RHKK(Ac) as substrate by fluorescence based analysis
Chain of Histone deacetylase 2 (Q92769 whole entry, the tested form may be a part): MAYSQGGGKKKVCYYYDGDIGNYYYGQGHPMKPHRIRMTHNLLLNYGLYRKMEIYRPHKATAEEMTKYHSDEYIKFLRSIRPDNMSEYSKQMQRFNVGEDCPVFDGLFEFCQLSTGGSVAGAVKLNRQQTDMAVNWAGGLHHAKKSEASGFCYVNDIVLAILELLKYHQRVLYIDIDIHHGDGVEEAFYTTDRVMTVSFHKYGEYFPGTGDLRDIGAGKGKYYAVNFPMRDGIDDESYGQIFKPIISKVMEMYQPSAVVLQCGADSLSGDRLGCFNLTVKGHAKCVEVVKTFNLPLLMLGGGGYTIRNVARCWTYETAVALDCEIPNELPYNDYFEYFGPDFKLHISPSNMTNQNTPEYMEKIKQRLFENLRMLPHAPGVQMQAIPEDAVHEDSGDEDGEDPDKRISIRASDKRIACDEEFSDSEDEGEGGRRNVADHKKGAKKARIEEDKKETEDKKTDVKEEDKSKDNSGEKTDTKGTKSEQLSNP

[2] = AUC (0 to infinity) in mouse at 50 mg/kg, po; assay type: ADME, organism-based; conditions: in vivo
[3] = AUClast in dog at 5 mg/kg, po; assay type: ADME, organism-based, Canis lupus familiaris; conditions: in vivo
[4] = Cmax in mouse at 50 mg/kg, po; assay type: ADME, organism-based; conditions: in vivo
[5] = Half life in dog at 0.5 mg/kg, iv; assay type: ADME, organism-based, Canis lupus familiaris; conditions: in vivo

Chain of Histone deacetylase 3 (O15379 whole entry, the tested form may be a part): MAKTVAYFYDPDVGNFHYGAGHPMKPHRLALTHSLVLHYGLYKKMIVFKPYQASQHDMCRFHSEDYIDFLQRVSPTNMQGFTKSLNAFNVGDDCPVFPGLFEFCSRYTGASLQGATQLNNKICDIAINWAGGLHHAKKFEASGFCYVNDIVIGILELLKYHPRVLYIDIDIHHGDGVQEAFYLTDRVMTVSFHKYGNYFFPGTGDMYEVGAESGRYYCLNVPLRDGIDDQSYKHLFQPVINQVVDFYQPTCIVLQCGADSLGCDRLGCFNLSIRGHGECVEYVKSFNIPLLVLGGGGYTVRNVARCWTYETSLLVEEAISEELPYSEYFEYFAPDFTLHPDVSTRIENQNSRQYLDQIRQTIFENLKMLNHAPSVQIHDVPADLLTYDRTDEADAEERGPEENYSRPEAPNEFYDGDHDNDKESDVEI

AUC(0-inf) [2] [ng·h/mL] | AUC(0-t) [3] [ng·h/mL] | Cmax [4] [ng/mL] | half-life [5] [min] | SMILES | IC50 (Histone deacetylase 3) [µM] | IC50 (Histone deacetylase 8) [µM] | IC50 (Histone deacetylase 11) [µM] | IC50 (Histone deacetylase 1) [µM] | IC50 [1] [µM] | IC50 (Histone deacetylase 7) [µM] | Ratio IC50 (Homo sapiens) | IC50 (Histone deacetylase 2) [µM]
 |  |  |  | O=C(NO)c1ccc(Cn2c3c(c4ccccc42)C(=O)CCC3)cc1 | > 20 | > 20 | > 20 | 18.1 | > 20 | > 20 | 168 | > 20
1150 | 1090 | 2080 | 36 | CC1(C)CC(=O)c2c(C(F)(F)F)nn(Cc3ccc(C(=O)NO)cc3)c2C1 | > 20 | > 20 | > 20 | > 20 | > 20 | > 20 | 217 | > 20
